Measured values: ChEMBL document CHEMBL4308920, “Optimizing the Pharmacological Profile of New Bifunctional Antihyperlipidemic/Antioxidant Morpholine Derivatives” (ACS Med Chem Lett, 2019)

Experiments:
[1] = target: T1, Squalene synthase (Rattus norvegicus, UniProt Q02769); experiment: Inhibition of SQS in rat liver microsomes assessed as reduction in [3H]FPP conversion to squalene after 45 mins by liquid scintillation counting method
T1 sequence (Q02769 whole entry): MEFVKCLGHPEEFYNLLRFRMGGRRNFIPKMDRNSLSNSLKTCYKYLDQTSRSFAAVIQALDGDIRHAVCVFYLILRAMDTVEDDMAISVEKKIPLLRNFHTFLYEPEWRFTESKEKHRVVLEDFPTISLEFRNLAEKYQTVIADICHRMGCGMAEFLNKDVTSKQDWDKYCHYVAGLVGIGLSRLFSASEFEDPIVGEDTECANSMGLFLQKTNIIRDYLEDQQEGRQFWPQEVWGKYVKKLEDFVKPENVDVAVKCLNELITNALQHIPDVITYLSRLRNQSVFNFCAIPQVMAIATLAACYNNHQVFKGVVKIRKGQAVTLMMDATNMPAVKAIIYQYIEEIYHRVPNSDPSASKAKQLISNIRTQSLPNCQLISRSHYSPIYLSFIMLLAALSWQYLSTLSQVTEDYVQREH

[2] = target: T1, Squalene synthase; experiment: Inhibition of SQS in rat liver microsomes assessed as reduction in [3H]FPP conversion to squalene preincubated for 10 mins followed by [3H]FPP addition and measured after 10 mins by scintillation counting method
[3] = system: Liver; experiment: Antioxidant activity in rat hepatic microsomes assessed as reduction in ferrous salt/ascorbic acid-induced lipid peroxidation of membrane lipids by measuring TBARS level after 45 mins by spectrophotometric method; format: functional, Microsome; settings: 0.75 h
[4] = target: T2, Squalene synthase (Rattus norvegicus) (UniProt Q02769); experiment: Potency index, ratio of 2-(4-(6-methoxynaphthalen-2-yl)phenyl)-4-methylmorpholin-2-ol hydrobromide IC50 to compound IC50 for inhibition of SQS in rat liver microsomes
T2 sequence (whole entry): T1 sequence (Q02769 whole entry)

[5] = system: Mus musculus; experiment: Antihypercholesterolemic activity in C57BL/6 mouse model of Triton WR1339-induced hyperlipidemia assessed as reduction in plasma total cholesterol level at 84 umol/kg, ip measured after 24 hrs relative to control; format: functional; design: scale not given: the % may be the effect or the level left
[6] = target: T2, Squalene synthase (Rattus norvegicus); experiment: Potency index, ratio of 4-methyl-2-(4-(naphthalen-2-yl)phenyl)morpholin-2-ol hydrobromide IC50 to compound IC50 for inhibition of SQS in rat liver microsomes
[7] = system: Mus musculus; experiment: Anti-inflammatory activity in C57BL/6 mouse assessed as inhibition of carrageenan-induced hind paw edema at 300 umol/kg, ip treated immediately after carrageenan challenge measured after 3.5 hrs relative to control; format: functional; settings: C57BL/6, ip
[8] = system: Mus musculus; experiment: Antihyperlipidemic activity in C57BL/6 mouse model of Triton WR1339-induced hyperlipidemia assessed as reduction in plasma total triglyceride level at 84 umol/kg, ip measured after 24 hrs relative to control; format: functional; design: scale not given: the % may be the effect or the level left
[9] = system: Mus musculus; experiment: In vivo antioxidant activity in C57BL/6 mouse model of Triton WR1339-induced hyperlipidemia assessed as increase in total antioxidant capacity in plasma at 84 umol/kg, ip measured after 24 hrs relative to control; format: functional
[10] = target: T2, Squalene synthase (Rattus norvegicus); experiment: Potency index, ratio of 2-(biphenyl-4-yl)-4-methylmorpholin-2-ol hydrobromide IC50 to compound IC50 for inhibition of SQS in rat liver microsomes

IC50 [2] | IC50 [3] | SMILES | other results
20.8 µM | 218 µM | CN1CC(c2ccc(-c3ccccc3)cc2)OC2CCCCC21 (centres undefined) | –
– | 25 µM | Cc1c(C)c2c(c(C)c1O)CCC(C)(C(=O)O)O2 (centres undefined) [TROLOX] | –
0.51 µM | 75.8 µM | CN1CCOC(OCCCO[N+](=O)[O-])(c2ccc(-c3ccc4ccccc4c3)cc2)C1 (centres undefined) | –
7.5 µM | 179 µM | c1ccc(-c2ccc(C3CN4CCCCC4CO3)cc2)cc1 (centres undefined) | –
– | > 500 µM | CC(C)(Sc1cc(C(C)(C)C)c(O)c(C(C)(C)C)c1)Sc1cc(C(C)(C)C)c(O)c(C(C)(C)C)c1 [PROBUCOL] | –
24.9 µM | 333 µM | CN1CCOC(OCCCO)(c2ccc(-c3ccccc3)cc2)C1 (centres undefined) | –
2.7 µM | 372 µM | CN1CCOC(OCCCS)(c2ccc(-c3ccccc3)cc2)C1 (centres undefined) | Ratio IC50 [4]: < 136; Ratio IC50 [6]: < 136; Ratio IC50 [10]: < 136
16.1 µM | 45 µM | COc1ccc2cc(-c3ccc(C4(OCCCO[N+](=O)[O-])CN(C)CCO4)cc3)ccc2c1 (centres undefined) | –

Second part, the compound before the results:

SMILES | IC50 [2] | IC50 [3] | other results
COc1cccc([C@H]2O[C@H](CC(=O)N3CCC(CC(=O)O)CC3)C(=O)N(CC(C)(C)COC(C)=O)c3ccc(Cl)cc32)c1OC [LAPAQUISTAT ACETATE] | – | – | IC50 [1]: 0.078 µM
Br.CN1CCOC(OCCCS)(c2ccc(-c3ccc4ccccc4c3)cc2)C1 (centres undefined) | 0.014 µM | 198 µM | Ratio IC50 [4]: < 136; Activity [5]: 67%; Ratio IC50 [6]: < 136; inhibition in vivo at 300 µmol/kg [7]: 40%; Activity [8]: 25%; TAC [9]: 20%; Ratio IC50 [10]: < 136
CN1CCOC(OCCCO)(c2ccc(-c3ccc4ccccc4c3)cc2)C1 (centres undefined) | 6.2 µM | 259 µM | –
CN1CCSC(c2ccc(-c3ccccc3)cc2)C1 (centres undefined) | 15 µM | 299 µM | –
CN1CCOC(c2ccc(-c3ccccc3)cc2)C1 (centres undefined) | > 100 µM | 86.8 µM | –
CN1CCSC(c2ccc3ccccc3c2)C1 (centres undefined) | 25.2 µM | 178 µM | –
CN1C=C(c2ccc(-c3ccccc3)cc2)OC2CCCCC21 (centres undefined) | 42 µM | 65.1 µM | –
COc1ccc2cc(-c3ccc(C4(OCCCS)CN(C)CCO4)cc3)ccc2c1 (centres undefined) | 0.16 µM | 147 µM | Ratio IC50 [4]: < 136; Ratio IC50 [6]: < 136; Ratio IC50 [10]: < 136
COc1ccc2cc(-c3ccc(C4(OCCCO)CN(C)CCO4)cc3)ccc2c1 (centres undefined) | 29.4 µM | 211 µM | –
